Data from article PMC3382598, “Functional Metagenomics Unveils a Multifunctional Glycosyl Hydrolase from the Family 43 Catalysing the Breakdown of Plant Polymers in the Calf Rumen” (PLoS ONE, 2012).
Each block holds one compound with its values, some of them ahead of it.

Columns and labels:
Assay type in all cases: biochemical
Details in all cases: pH 6.0 (20 mM sodium acetate), 34°C; read-out: K m (mM)^1
[1] = test system: T1, R_09-02; assay: released xylose, D-xylose assay kit; Michaelis-Menten fit
T1 construct: recombinant in E. coli, His6-tag purification; tetramer approx. 200 kDa; second CDS of 3264 bp r_09 insert; W82, H301, R327 conserved residues; N-terminal GH43 domain plus C-terminal beta-sandwich (CBM6-like)
Source text: released xylose, D-xylose assay kit; Michaelis-Menten fit on R_09-02

[2] = test system: T1, R_09-02; assay: released arabinose, lactose/galactose (Rapid) assay kit; Michaelis-Menten fit
Source text: released arabinose, lactose/galactose (Rapid) assay kit; Michaelis-Menten fit on R_09-02

[3] = test system: T1, R_09-02; assay: released glucose, glucose oxidase kit; Michaelis-Menten fit
Source text: released glucose, glucose oxidase kit; Michaelis-Menten fit on R_09-02

[4] = test system: T1, R_09-02; assay: oligosaccharide hydrolysis, released sugar assay; Michaelis-Menten fit
Source text: oligosaccharide hydrolysis, released sugar assay; Michaelis-Menten fit on R_09-02

[5] = test system: T1, R_09-02; assay: p-nitrophenol release at […] nm; Michaelis-Menten fit

Km [1]: 1.58 ± 0.19 mM
SMILES: OC1[C@H](O)CO[C@@H](O[C@@H]2CO[C@@H](O[C@@H]3CO[C@@H](O[C@@H]4CO[C@@H](O[C@@H]5COC(O)[C@H](O)[C@H]5O)[C@H](O)C4O)[C@H](O)C3O)[C@H](O)C2O)[C@@H]1O (stereo partly drawn) [1,4-β-Xylopentaose]

Km [2]: 4.23 ± 0.74 mM
SMILES: OC[C@@H]1O[C@@H](OC[C@@H]2O[C@@H](OC[C@@H]3O[C@@H](OC[C@@H]4OC(O)[C@H](O)[C@H]4O)[C@H](O)[C@H]3O)[C@H](O)[C@H]2O)[C@H](O)[C@H]1O (stereo partly drawn) [1,5-α-L-Arabinotetraose]

Km [3]: 1.64 ± 0.21 mM
SMILES: OC[C@H]1O[C@H](O[C@H]2[C@H](O)[C@@H](O)[C@@H](O[C@H]3[C@H](O)[C@@H](O)[C@@H](O[C@H]4[C@H](O)[C@@H](O)[C@@H](O[C@H]5[C@H](O)[C@@H](O)C(O)O[C@@H]5CO)O[C@@H]4CO)O[C@@H]3CO)O[C@@H]2CO)[C@H](O)[C@@H](O)[C@@H]1O (some centres unmarked) [Maltopentaose]

Km [3]: 2.57 ± 0.19 mM
SMILES: OC[C@H]1O[C@H](O[C@H]2[C@H](O)[C@@H](O)C(O)O[C@@H]2CO)[C@H](O)[C@@H](O)[C@@H]1O (some centres unmarked) [Maltose]

Km [3]: 0.53 ± 0.17 mM
SMILES: OC[C@H]1O[C@H](O[C@H]2[C@H](O)[C@@H](O)[C@@H](O[C@H]3[C@H](O)[C@@H](O)[C@@H](O[C@H]4[C@H](O)[C@@H](O)C(O)O[C@@H]4CO)O[C@@H]3CO)O[C@@H]2CO)[C@H](O)[C@@H](O)[C@@H]1O (some centres unmarked) [Maltotetraose]

Km [3]: 0.44 ± 0.13 mM
SMILES: OC[C@H]1O[C@H](O[C@H]2[C@H](O)[C@@H](O)[C@@H](O[C@H]3[C@H](O)[C@@H](O)C(O)O[C@@H]3CO)O[C@@H]2CO)[C@H](O)[C@@H](O)[C@@H]1O (some centres unmarked) [Maltotriose]

Km [4]: 1.43 ± 0.84 mM
SMILES: OC[C@H]1O[C@H](OC[C@H]2O[C@H](OC[C@H]3O[C@H](O[C@]4(CO)O[C@H](CO)[C@@H](O)[C@@H]4O)[C@H](O)[C@@H](O)[C@@H]3O)[C@H](O)[C@@H](O)[C@H]2O)[C@H](O)[C@@H](O)[C@H]1O [Stachyose]

Continued, compound first:

SMILES: OC1OC[C@@H](O[C@@H]2OC[C@@H](O)[C@H](O)[C@H]2O)[C@H](O)[C@H]1O (stereo partly drawn) [1,4-β-Xylobiose]
Km [1]: 0.012 ± 0.002 mM

SMILES: OC1OC[C@@H](O[C@@H]2OC[C@@H](O[C@@H]3OC[C@@H](O[C@@H]4OC[C@@H](O)[C@H](O)[C@H]4O)[C@H](O)[C@H]3O)[C@H](O)[C@H]2O)[C@H](O)[C@H]1O (stereo partly drawn) [1,4-β-Xylotetraose]
Km [1]: 0.33 ± 0.07 mM

SMILES: OC1OC[C@@H](O[C@@H]2OC[C@@H](O[C@@H]3OC[C@@H](O)[C@H](O)[C@H]3O)[C@H](O)[C@H]2O)[C@H](O)[C@H]1O (stereo partly drawn) [1,4-β-Xylotriose]
Km [1]: 0.29 ± 0.02 mM

SMILES: OC[C@@H]1O[C@@H](OC[C@@H]2OC(O)[C@H](O)[C@H]2O)[C@H](O)[C@H]1O (stereo partly drawn) [1,5-α-L-Arabinobiose]
Km [2]: 0.027 ± 0.01 mM

SMILES: OC[C@@H]1O[C@@H](OC[C@@H]2O[C@@H](OC[C@@H]3OC(O)[C@H](O)[C@H]3O)[C@H](O)[C@H]2O)[C@H](O)[C@H]1O (stereo partly drawn) [1,5-α-L-Arabinotriose]
Km [2]: 0.1 ± 0.05 mM

SMILES: OC[C@H]1O[C@@H](O[C@H]2[C@H](O)[C@@H](O)C(O)O[C@@H]2CO)[C@H](O)[C@@H](O)[C@H]1O (some centres unmarked) [Lactose]
Km [3]: 0.05 ± 0.0039 mM

SMILES: OC[C@H]1O[C@H](OC[C@H]2O[C@H](O[C@]3(CO)O[C@H](CO)[C@@H](O)[C@@H]3O)[C@H](O)[C@@H](O)[C@@H]2O)[C@H](O)[C@@H](O)[C@H]1O [Raffinose]
Km [4]: 0.035 ± 0.004 mM

SMILES: O=[N+]([O-])c1ccc(O[C@@H]2O[C@@H](CO)[C@H](O)[C@H]2O)cc1 [pNPαAf]
Km [5]: 0.57 ± 0.15 mM

SMILES: O=[N+]([O-])c1ccc(O[C@@H]2OC[C@H](O)[C@H](O)[C@H]2O)cc1 [pNPαAp]
Km [5]: 6.98 ± 0.79 mM

SMILES: O=[N+]([O-])c1ccc(O[C@H]2O[C@H](CO)[C@@H](O)[C@H](O)[C@H]2O)cc1 [pNPαG]
Km [5]: 4.84 ± 1.27 mM

SMILES: O=[N+]([O-])c1ccc(O[C@H]2O[C@H](CO)[C@@H](O[C@H]3O[C@H](CO)[C@@H](O)[C@H](O)[C@H]3O)[C@H](O)[C@H]2O)cc1 [pNPαMal]
Km [5]: 9.74 ± 0.41 mM

SMILES: O=[N+]([O-])c1ccc(O[C@@H]2O[C@H](CO)[C@H](O)[C@H](O)[C@H]2O)cc1 [pNPβGal]
Km [5]: 0.37 ± 0.12 mM

SMILES: O=[N+]([O-])c1ccc(O[C@@H]2OC[C@@H](O)[C@H](O)[C@H]2O)cc1 [pNPβX]
Km [5]: 4.4 ± 0.76 mM
